Measured values reported in patent US7727956B2, “Deoxonadepsipeptides” (Aicuris GmbH & Co. KG, priority 2004, dated 2010).
Converted amounts (≈) assume the structure as drawn. Read-outs that look alike come from different tables or passages of the source. Starred links: 1 amine or outer side, 2 acyl side, 3 side chain; linkers in the order of their positions; H or OH if unused. Positions of bridges follow the written chain, without caps; N, C: chain ends. Non-standard residues stand in square brackets, D forms with d. Residues, ends and D or L forms follow the SMILES beside them. X3 = C[Si](C)(C)C[C@H](N)CN([C@@H](C[Si](C)(C)C)C(=O)[*:2])[*:1]; X4 = CC(C)(C)C[C@@H](C(=O)[*:2])N(C[C@@H](N)C[Si](C)(C)C)[*:1]; X1 = CC(C)C[C@@H](C(=O)[*:2])N(C[C@@H](N)C[Si](C)(C)C)[*:1]; Phe(3R-OH) = O=C([C@@H](N[*:1])[C@H](O[*:3])c1ccccc1)[*:2]; X2 = CC(C)(C)C[C@H](N)CN([C@@H](CC(C)(C)C)C(=O)[*:2])[*:1]; Asn(3S-OH) = NC(=O)[C@@H](O)[C@H](N)C(=O)O; Leu(3R-OH) = CC(C)[C@@H](O)[C@H](N)C(=O)O; aThr = C[C@H](O)[C@H](N)C(=O)O

Key:
[1] = test system: E. faecalis ICB 27159; format: cell-based, Entercococcus faecalis
Experimental: (§1) Determination of the Minimum Inhibitory Concentration (MIC):
(§2) The MIC is determined in the liquid dilution test in accordance with the NCCLS guidelines. Overnight cultures of Staphylococcus aureus 133, Entercococcus faecalis 27159, E. faecium 4147 and Streptococcus pneumoniae G9a are incubated with the described test substances in a 1:2 dilution series. The MIC determination is carried out with a cell count of 105 microorganisms per ml in Isosensitest medium (Difco, Irvine/USA), with the exception of S. pneumoniae, which is tested in BHI broth (Difco, Irvine/USA) with 10% bovine serum at a cell count of 106 microorganisms per ml. The cultures are incubated at 37° C. for 18-24 hours, S. pneumoniae in the presence of 10% CO2.
(§3) The lowest substance concentration in each case at which no visible bacterial growth occurs any more is defined as the MIC. The MIC values are reported in μg/ml.

[2] = test system: Staphylococcus aureus 133; format: cell-based
Experimental: as §1, §2, §3

[3] = test system: Streptococcus pneumoniae G9a; format: cell-based
Experimental: as §1, §2, §3

[4] = Isosensitest medium, 37° C., 18-24 hours
[5] = BHI broth with 10% bovine serum, 37° C., 18-24 hours, 10% CO2

MIC E. faecalis ICB 27159 ([1]; ICB 27159) [µg/mL]	MIC S. aureus 133 [2]; 133 [µg/mL]	MIC S. pneumoniae ([3]; G9a) [µg/mL]	SMILES	MIC E. faecalis ICB 27159 [1, 4] [µg/mL]	MIC S. aureus 133 [2, 4] [µg/mL]	MIC S. pneumoniae [3, 5] [µg/mL]
–	–	–	CC[C@H](C)[C@@H]1NC(=O)[C@@H](CCCNC(=N)N)NC(=O)[C@H](CC(C)C)NC(=O)[C@H]([C@H](O)C(C)C)NC(=O)[C@@H](NC(=O)[C@H](CC(C)C)NC[C@@H](N)C[Si](C)(C)C)[C@@H](c2ccccc2)OC(=O)[C@H](CO)NC(=O)[C@H]([C@H](O)C(N)=O)NC(=O)CNC(=O)[C@H]([C@H](C)O)NC1=O [Example 5, N-[(2R)-2-Amino-3-trimethylsilyl-prop-1-yl]de(1-D-leucine) lysobactin trishydro-trifluoroacetate] (H-[X1][Phe(3R-OH)][Leu(3R-OH)]L[dR]I[aThr]G[Asn(3S-OH)]S; ester 2-C)	1 (≈ 0.774 µM)	0.5 (≈ 0.387 µM)	0.063 (≈ 0.0487 µM)
1 (≈ 0.775 µM)	0.5 (≈ 0.387 µM)	0.063 (≈ 0.0488 µM)	CC[C@H](C)[C@@H]1NC(=O)[C@@H](CCCNC(=N)N)NC(=O)[C@H](CC(C)C)NC(=O)[C@H]([C@H](O)C(C)C)NC(=O)[C@@H](NC(=O)[C@H](CC(C)(C)C)NC[C@@H](N)CC(C)(C)C)[C@@H](c2ccccc2)OC(=O)[C@H](CO)NC(=O)[C@H]([C@H](O)C(N)=O)NC(=O)CNC(=O)[C@H]([C@H](C)O)NC1=O [Example 8, N-{N-[(2S)-2-Amino-4,4-dimethylpent-1-yl]-β-tBu-Ala-de(1-D-leucine-2-leucine)-lysobactintris-hydrofluoro-acetate] (H-[X2][Phe(3R-OH)][Leu(3R-OH)]L[dR]I[aThr]G[Asn(3S-OH)]S; ester 2-C)	–	–	–
–	–	–	CC[C@H](C)[C@@H]1NC(=O)[C@@H](CCCNC(=N)N)NC(=O)[C@H](CC(C)C)NC(=O)[C@H]([C@H](O)C(C)C)NC(=O)[C@@H](NC(=O)[C@H](C[Si](C)(C)C)NC[C@@H](N)C[Si](C)(C)C)[C@@H](c2ccccc2)OC(=O)[C@H](CO)NC(=O)[C@H]([C@H](O)C(N)=O)NC(=O)CNC(=O)[C@H]([C@H](C)O)NC1=O [Example 14, N-{N-[(2R)-2-Amino-3-trimethylsilyl-prop-1-yl]-(β-trimethylsilyl)-Ala]}de(1-D-leucine-2-leucine)-lysobactin tris-hydrotrifluoro-acetate] (H-[X3][Phe(3R-OH)][Leu(3R-OH)]L[dR]I[aThr]G[Asn(3S-OH)]S; ester 2-C)	0.125 (≈ 0.0945 µM)	0.25 (≈ 0.189 µM)	0.0156 (≈ 0.0118 µM)
–	–	–	CC[C@H](C)[C@@H]1NC(=O)[C@@H](CCCNC(=N)N)NC(=O)[C@H](CC(C)C)NC(=O)[C@H]([C@H](O)C(C)C)NC(=O)[C@@H](NC(=O)[C@H](CC(C)(C)C)NC[C@@H](N)C[Si](C)(C)C)[C@@H](c2ccccc2)OC(=O)[C@H](CO)NC(=O)[C@H]([C@H](O)C(N)=O)NC(=O)CNC(=O)[C@H]([C@H](C)O)NC1=O [Example 15, N-{N-[(2R)-2-Amino-3-tri-methylsilylprop-1-yl]-(β-tBu-Ala)}-de(1-D-leucine-2-leucine) lysobactin trishydro-trifluoroacetate] (H-[X4][Phe(3R-OH)][Leu(3R-OH)]L[dR]I[aThr]G[Asn(3S-OH)]S; ester 2-C)	1 (≈ 0.765 µM)	0.5 (≈ 0.383 µM)	0.063 (≈ 0.0482 µM)
